# From patent publication US7618774B2, “Materials and methods for identifying genes and/or agents that alter replicative lifespan” (University of Rochester, priority 2003, dated 2009)
# Entries after “also recorded” stand apart in the source; their conditions may differ.
# How the values were obtained:
# [1] = tested on: mammalian cells; details: literature reports; cited from earlier work
# [2] = tested on: yeast; details: literature reports; cited from earlier work
# [3] = tested on: K6001 cells; experiment: DEAD assay for replicative lifespan; format: cell-based, S. cerevisiae
# Text: One yeast strain that can be used in the assays of the present invention is S. cerevisiae strain K6001, which carries two distinct non-native genes (i.e., not contained within a single cassette). This strain was originally developed for the study of mating-type switching (Bobola et al. “Asymmetric Accumulation of Ash1p in Postanaphase Nuclei Depends on a Myosin and Restricts Yeast Mating-Type Switching to Mother Cells,” Cell 84:699-709 (1996), which is hereby incorporated by reference in its entirety). K6001 cells contain two independent copies of CDC6 expressed from either the repressible GAL1or mother-cell specific HO promoters. Cdc6p is an essential protein required for DNA replication. Transcription from the HO promoter in daughter cells is prevented by Ash1p, which is expressed exclusively in daughter cells (Sil, et al., “Identification of Asymmetrically Localized Determinant, Ash1p, Required for Lineage-Specific Transcription of the Yeast HO Gene,” Cell 84:711-22 (1996), which is hereby incorporated by reference in its entirety). When K6001 cells are cultured on galactose, GAL1::CDC6 is expressed in both mother and daughter cells, sustaining the replication of both. However, when the GAL1::CDC6 gene is repressed by glucose, only the mother-specific expression of HO::CDC6 remains to support growth. Given the tight regulation of the GAL1promoter, DNA replication fails and daughter cells arrest after one, or at most a few ectopic cytokineses. As a result, K6001 cultures grow approximately linearly in glucose (daughter cells accumulate and contribute to the optical density of the culture) until the mother cells reach their replicative capacity and cease producing daughter cells. Since Cdc6 is naturally unstable, and the GAL1 promoter is efficiently shut off in glucose, the transition from log growth to linear growth is relatively tight and rapid. […]
# The DEAD assay was used to assess the effect of deleting SGS1 on replicative lifespan. […] After 48 hrs at 30° C. the number of daughter cells in each microcolony was counted by microdissection and plotted as a survival curve. […]
# [4] = biological target: Sir2 (Saccharomyces cerevisiae, UniProt P06700); details: in vitro; cited from earlier work
# Sequence of Sir2 (P06700 whole entry): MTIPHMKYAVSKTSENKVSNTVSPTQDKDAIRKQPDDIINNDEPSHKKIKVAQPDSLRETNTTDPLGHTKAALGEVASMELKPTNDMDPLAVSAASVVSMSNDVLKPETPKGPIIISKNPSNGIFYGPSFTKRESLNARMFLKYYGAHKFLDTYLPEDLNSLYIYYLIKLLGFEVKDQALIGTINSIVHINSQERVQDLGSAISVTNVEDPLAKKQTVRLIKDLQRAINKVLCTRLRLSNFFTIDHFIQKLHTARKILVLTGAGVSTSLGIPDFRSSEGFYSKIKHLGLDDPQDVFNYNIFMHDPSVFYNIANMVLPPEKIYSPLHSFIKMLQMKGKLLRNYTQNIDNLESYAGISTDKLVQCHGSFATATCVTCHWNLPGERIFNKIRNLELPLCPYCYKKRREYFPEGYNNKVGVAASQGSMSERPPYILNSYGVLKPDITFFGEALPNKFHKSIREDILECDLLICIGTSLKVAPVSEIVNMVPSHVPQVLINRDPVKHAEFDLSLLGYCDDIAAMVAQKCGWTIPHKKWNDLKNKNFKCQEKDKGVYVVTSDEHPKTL
SMILES,apoptosis [1],replicative lifespan of yeast [2],"lifespan (replicative) ([3]; K6001 cells cultured in 5 μM paraquat versus lower concentration, FIG. 4)","mean lifespan (replicative) ([3]; K6001 cells, paraquat between 0.1 μM to 5.0 μM, FIG. 4)",Sir2 activation [4],"mean lifespan (replicative) ([3]; K6001 cells cultured in presence or absence of 10 μM resveratrol, FIG. 3)"
C[n+]1ccc(-c2cc[n+](C)cc2)cc1 [paraquat],induce apoptosis in mammalian cells,reduce replicative lifespan in yeast,apparently shorter,decreased in a dose-dependent fashion,–,–
Oc1ccc(C=Cc2cc(O)cc(O)c2)cc1 [resveratrol],–,extends the replicative lifespan of yeast,–,–,actives Sir2 in vitro,significantly extended the mean lifespan; also recorded: longer mean lifespan
